Source: PMC5339874, “Fluorene-9-bisphenol is anti-oestrogenic and may cause adverse pregnancy outcomes in mice” (Nature Communications, 2017)

Key:
[1] = tested on: sprr2a and sprr2b; test: Q-RT-PCR of sprr2a and sprr2b in uteri after 10-day dosing; assay type: in vivo, mice; details: 10 days; P<0.05
Description: The uteri, ovaries and livers were collected for total RNA isolation. Total RNA was isolated using Trizol reagent (Invitrogen) and further purified by NucleoSpin RNA Clean-up (Macherey-Nagel, Germany). Fluorescence labelling of the RNA samples was performed with a Jingxin cRNA linear amplification and labelling kit (CapitalBio) according to the manufacturer's instructions. The total RNA from each pool of tissue samples (a mixture from three animals) was used for microarray analysis. Cy3 dCTP was used to label the samples. The labelled products were added to SurePrint G3 mouse gene expression 8 × 60 K microarrays (Agilent) and incubated overnight at 42 °C. Following hybridization, the gene arrays were washed and scanned using an Agilent G2565CA Microarray Scanner. Glyceraldehyde 3-phosphate dehydrogenase (GAPDH) was used as an endogenous control to monitor the quality of the target preparation. The data were processed with feature extraction software (GeneSpring GX v.11; Agilent). The raw signals were log-transformed and normalized with the percentile shift normalization method. All arrays met the minimum Agilent QA/QC standards. To verify the data from the gene array, 14 genes were chosen as candidates for Q-RT-PCR. Primers are listed in Supplementary Table 4. GAPDH was used as an endogenous control. […] The relative expression was quantified using the 2^(−ΔΔCt) method. […]

[2] = tested on: CD-1 mice; test: Subchronic and reproductive toxicity tests
Description: Immature CD-1 mice (20 days old) were obtained from Experimental Animal Tech Co. of Weitonglihua (Beijing, China) and acclimatized in an experimental environment with a temperature of 22 °C±2 °C, relative humidity between 40 and 60%, and artificial lighting in a 12 h/12 h light-dark cycle. The animals were fed ad libitum with a basic diet from the Laboratory Animal Center of the Academy of Military Medical Sciences (Beijing, China), and drinking water was provided ad libitum. […] The animals were housed five to a cage until the pairing date. The treatment via oral gavage of each mouse was performed once every 3 days beginning on PND 24. The chemicals were dissolved in peanut oil to the appropriate concentrations. The volume of vehicle or chemical solutions administered was adjusted daily based on body weight measured during the dosing period according to the volume-body weight ratio of 5 ml kg^−1 bw. On PND 60, 10 females of each group were weighed and killed by cervical dislocation. The uteri, ovaries, livers, kidneys and spleens were weighed and collected for histological analysis. At the age of PND 77, males and females were paired. Each morning, the females were examined for the presence of vaginal plugs. Gestational day 1 was defined as the day on which a vaginal plug was found. In cases where pairing was unsuccessful, females were re-mated with proven males of the same group, except that females in the 1.2 mg kg^−1 TAM group were re-mated with proven males of the control group. After a 7-day mating period, the males were weighed and killed, and organs were weighed and collected for further analysis. Cauda epididymal sperm was collected from each mouse and observed under a trinocular microscope (Olympus BX53) in physiological saline. A microscopic video was recorded and analysed for sperm quality evaluation. The treatment via oral gavage was continued for the females until day 19 of pregnancy. On post-partum days 0 and 4, the weights of the dams and pups were recorded and the pups were checked for abnormalities. On post-partum day 4, the dams were weighed and killed, and their organs were weighed and collected for further analysis. The ovaries and uteri were examined for the numbers of corpora lutea and implantation sites, respectively. Finally, the non-pregnant and nulliparous females were killed for histopathological analysis. For histological examination, organs and tissues were fixed in formalin fixation, embedded in paraffin, and sectioned serially at 5 μm. Slides were stained with hematoxylin and eosin (H&E), and observed under a light microscope (Olympus BX53).

Oc1ccc(C2(c3ccc(O)cc3)c3ccccc3-c3ccccc32)cc1 [BHPF, 9,9-bis(4-hydroxyphenyl)-fluorene] was tested, and the “doses significantly down-regulating sprr2a and sprr2b in uteri” value [1] was at least 9.26 mg kg^−1 bw d^−1, the “Absorption sites in the uterus of dams” value ([2]; 0.4 mg kg^−1 3-d^−1 BHPF) was 0.14±0.36 and the “Birth weight of pups” value ([2]; 0.4 mg kg^−1 3-d^−1 BHPF) was 1.66±0.21. For the same molecule, the “Body weight of female pups at PND 4” value ([2]; 0.4 mg kg^−1 3-d^−1 BHPF) was 3.08±0.57, the “Body weight of male pups at PND 4” value ([2]; 0.4 mg kg^−1 3-d^−1 BHPF) was 3.30±0.56 and the “Implantation sites in the uterus of dams” value ([2]; 0.4 mg kg^−1 3-d^−1 BHPF) was 15.21±2.02. For the same molecule, the Number of dams ([2]; 0.4 mg kg^−1 3-d^−1 BHPF) was 14, the “Number of live pups per litter” value ([2]; 0.4 mg kg^−1 3-d^−1 BHPF) was 12.71±2.55 and the “weight gain of males from PND 30” value ([2]; 0.4 mg kg^−1 3-d^−1 BHPF) was “higher weight gain than the control”. For the same molecule, the non-pregnant females ([2]; 0.4 mg kg^−1 bw 3-d^−1 BHPF) was 1, the “Absorption sites in the uterus of dams” value ([2]; 2 mg kg^−1 3-d^−1 BHPF) was 0.33±0.65 and the “Birth weight of pups” value ([2]; 2 mg kg^−1 3-d^−1 BHPF) was 1.59±0.24. For the same molecule, the “Body weight of female pups at PND 4” value ([2]; 2 mg kg^−1 3-d^−1 BHPF) was 3.04±0.62, the “Body weight of male pups at PND 4” value ([2]; 2 mg kg^−1 3-d^−1 BHPF) was 3.18±0.59 and the “Implantation sites in the uterus of dams” value ([2]; 2 mg kg^−1 3-d^−1 BHPF) was 15.42±2.02. The Number of dams ([2]; 2 mg kg^−1 3-d^−1 BHPF) was 12, the “Number of live pups per litter” value ([2]; 2 mg kg^−1 3-d^−1 BHPF) was 11.67±2.06 and the non-pregnant females ([2]; 2 mg kg^−1 bw 3-d^−1 BHPF) was 3. For the same molecule, the “Absorption sites in the uterus of dams” value ([2]; 10 mg kg^−1 3-d^−1 BHPF) was 0.64±0.67, the “Birth weight of pups” value ([2]; 10 mg kg^−1 3-d^−1 BHPF) was 1.54±0.18 and the “Body weight of female pups at PND 4” value ([2]; 10 mg kg^−1 3-d^−1 BHPF) was 3.05±0.44. For the same molecule, the “Implantation sites in the uterus of dams” value ([2]; 10 mg kg^−1 3-d^−1 BHPF) was 16.09±1.81, the Number of dams ([2]; 10 mg kg^−1 3-d^−1 BHPF) was 11 and the “Number of live pups per litter” value ([2]; 10 mg kg^−1 3-d^−1 BHPF) was 12.73±1.85. The non-pregnant females ([2]; 10 mg kg^−1 bw 3-d^−1 BHPF) was 3, the fetal death ([2]; 10 mg kg^−1 bw 3-d^−1 BHPF, a pregnant female) was “a dead fetus in late pregnancy was observed in the uterus” and the “Absorption sites in the uterus of dams” value ([2]; 50 mg kg^−1 3-d^−1 BHPF) was 1.09±1.38. The “Birth weight of pups” value ([2]; 50 mg kg^−1 3-d^−1 BHPF) was 1.64±0.16, the “Body weight of female pups at PND 4” value ([2]; 50 mg kg^−1 3-d^−1 BHPF) was 3.20±0.53 and the “Body weight of male pups at PND 4” value ([2]; 50 mg kg^−1 3-d^−1 BHPF) was 3.21±0.51. The “Implantation sites in the uterus of dams” value ([2]; 50 mg kg^−1 3-d^−1 BHPF) was 14.45±2.42, the Number of dams ([2]; 50 mg kg^−1 3-d^−1 BHPF) was 11 and the “Number of live pups per litter” value ([2]; 50 mg kg^−1 3-d^−1 BHPF) was 10.27±2.53. For the same molecule, the late abortion ([2]; 50 mg kg^−1 bw 3-d^−1 BHPF) was “one case of late abortion”, the maternal death ([2]; 50 mg kg^−1 bw 3-d^−1 BHPF) was “one unexplained maternal death during parturition” and the non-pregnant females ([2]; 50 mg kg^−1 bw 3-d^−1 BHPF) was 2. For the same molecule, the “weight gain before pairing” value ([2]; BHPF 0.4–50, TAM 1.2 mg kg^−1 bw 3-d^−1) was “no significant differences in weight gain”, the “doses causing adverse pregnancy outcomes” value ([2]; CD-1 mice) was at least 2 mg kg^−1 bw 3-d^−1 and the “doses inducing atrophic endometria” value ([2]; CD-1 mice) was at least 0.4 mg kg^−1 bw 3-d^−1. The pregnancy-related weight gain ([2]; all BHPF-treated groups) was “significantly decreased”, the “analysis of ovary sections” value ([2]; females at PND 60) was “retarded follicular development and reduced the numbers of corpora lutea” and the “histopathological examination of uteri” value ([2]; females at PND 60, 36-day exposure) was “serious atrophic endometria”. The “weights of the ovaries on both sides” value ([2]; females at PND 60, BHPF groups, 1.2 mg kg^−1 bw 3-d^−1 TAM) was “not affected”, the “doses significantly decreasing uterine weights and inducing atrophic endometria” value ([2]; intact female mice, oral gavage 36 days from PND 24) was at least 2 mg kg^−1 3-d^−1 and the sperm quality ([2]; males PND 84) was “No obvious adverse effects”. For the same molecule, the “pathological examination of seminal vesicle” value ([2]; males PND 84, TAM 1.2, BHPF 50 mg kg^−1 bw 3-d^−1 group) was “one case of unilateral seminal vesicle atrophy” and the “histopathological examination of ovaries” value ([2]; non-pregnant females) was “haemorrhagic ovary cysts occurred”.
